{"source": "patent US9388126B2", "about": "“Sigma receptor ligands and methods of modulating cellular protein homeostasis using same” (Drexel University, priority 2012, dated 2016)", "key": {"[1]": {"system": "MCF-7, T47D and MDA-MB-468 cells", "assay": "Cell proliferation by Alamar blue reduction, breast adenocarcinoma cultures", "format": "cell-based, human", "settings": "after 4 days of treatment, six drug concentrations", "description": "In vitro cell proliferation was quantitated by Alamar blue reduction. The anti-proliferative effects of six drug concentrations of the indicated drugs were quantitated after 4 days of treatment."}, "[2]": {"system": "MDA-MB-468 breast tumor cells", "assay": "Akt, S6K and ERK phosphorylation immunoblots", "format": "cell-based, human", "procedure": "FIG. 40, comprising FIGS. 40A-40C, illustrates Sigma1 antagonist modulation of Akt, S6K, and ERK phosphorylation. MDA-MB-468 breast tumor cells were treated for 24 hours with 10 μM IPAG (Sigma1 antagonist) or (+)SKF-10047 (SKF, Sigma1 agonist). Treated cells were harvested and cellular proteins were extracted with a buffer containing 1% Sodium Dodecyl Sulfate (SDS) and deoxycholate (DOC), supplemented with phosphatase and protease inhibitors. FIG. 40A is an image of an immunoblot illustrating Akt phosphorylation. […] Akt phosphorylation at threonine 308 was not altered in any of the samples (not shown). Equivalent loading was confirmed with an anti-GAPDH antibody. FIG. 40B is an image of an immunoblot illustrating phosphorylation. Phosphorylation of mTOR substrate, p70S6K at threonine 389 decreased 3-fold in IPAG, but not SKF treated cells. Total p70S6K was immunoblotted as a loading control. FIG. 40C is an immunoblot illustrating that p44/42 ERK1/2phosphorylation at threonine 202 and tyrosine 204 was abrogated by 24 hour treatment with IPAG. Data shown is representative of two independent experiments."}, "Sigma1": {"target": "Sigma1 (Homo sapiens, UniProt Q99720)", "sequence (Q99720 whole entry)": "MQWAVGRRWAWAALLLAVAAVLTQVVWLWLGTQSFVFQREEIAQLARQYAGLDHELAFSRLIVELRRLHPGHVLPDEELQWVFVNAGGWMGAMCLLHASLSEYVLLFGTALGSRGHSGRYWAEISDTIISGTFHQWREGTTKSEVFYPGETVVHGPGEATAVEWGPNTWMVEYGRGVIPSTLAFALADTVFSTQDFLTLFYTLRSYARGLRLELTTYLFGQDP", "settings": "read-out: Ki, affinity for the Sigma1; cited from earlier work"}, "[3]": {"system": "T47D and MDA-MB-468 cells", "assay": "Cell cycle profile (G1, S, G2 phase cells)", "format": "cell-based, human", "settings": "24 hours; IPAG 1 μM (T47D) or 10 μM (MDA-MB-468); (+)-SKF-10047 10 μM", "procedure": "FIG. 30, comprising FIGS. 30A-30B, illustrates that Sigma1 antagonists mediate cell cycle arrest. […] FIG. 30A is a graph illustrating the percentage of G1, S, and G2 phase cells in T47D cells treated for 24 hours with DMSO (vehicle control), 1 μM IPAG (Sigma1 antagonist), or 10 μM (+)SKF-10047 (Sigma1 agonist). FIG. 30 B is a graph illustrating the percentage of G1, S, and G2 phase cells in MDA-MB-468 cells treated for 24 hours with DMSO (vehicle control), 10 μM IPAG (Sigma1 antagonist), or 10 μM (+)-SKF-10047 (Sigma1 agonist)."}, "MDA-MB-468 cells": {"system": "MDA-MB-468 cells", "assay": "ER stress / UPR marker immunoblots", "format": "cell-based, human", "settings": "for EC50: mean of two determinations", "procedure": "(§1) Cells were lysed and proteins extracted in a modified RIPA buffer (25 mM Tris-HCl pH 7.6, 150 mM NaCl, 1% NP-40, 1% sodium deoxycholate and 0.1% SDS) supplemented with 10% glycerol (volume/volume), complete protease inhibitor cocktail (Roche), and Halt phosphatase inhibitor cocktail (Pierce). Approximately 10-20 μg of detergent soluble protein were resolved on NOVEX 10-20% polyacrylamide Tris-glycine gels (InVitrogen). Immunoblots were performed in a 20 mM Tris-buffered 137 mM saline solution (pH 7.6) containing 0.1% Tween-20 (polyoxyethylene (20) sorbitan monolaurate) and 5% (weight/volume) blotting grade non-fat dry milk (BioRad). The Lumigen PS-3 enhanced chemiluminescence kit (GE Healthcare) was used to reveal immunoblotted proteins.\nWhether Sigma antagonists immediately induce autophagy or whether it is activated downstream of other cellular events was next examined. As Sigma1 is highly enriched in the ER, next examined was whether antagonist treatment could induce ER stress mediated UPR. Components of the IRE1α-JNK1/2 and eIF2α-ATF4 branches of the UPR as well as the UPR-associated ER chaperone, GRP78/BiP, were assayed as indicators of activated UPR.\nAll of the above-mentioned markers of ER stress were evaluated following treatment with increasing doses of Sigma ligands in order to compare UPR with the dose-responsive activation of autophagy. Sigma1 antagonist, IPAG, activated the UPR in a dose-responsive manner (FIG. 6)."}, "[4]": {"system": "MDA-MB-468 breast adenocarcinoma cells", "assay": "LC3 lipidation (LC3II) immunoblot", "format": "cell-based, human", "settings": "24 hours", "procedure": "as §1\nInitially, an established immunoblot-based assay to detect microtubule associated protein light chain 3 (LC3) lipidation was used to test for the activation of autophagy. […] Since transient transfections can produce spurious GFP-LC3 aggregates, stable GFP-LC3 transfected populations of MDA-MB-468 (GFP-LC3) were generated. These cells were treated for 24 hours with increasing concentrations of Sigma receptor antagonists and agonists, and were compared to basal and DMSO treated controls (FIGS. 4B & 4C)."}, "[5]": {"system": "MDA-MB-468 and MDA-MB-231 breast adenocarcinoma cells", "assay": "Poly-ubiquitylated protein immunoblot, breast adenocarcinoma cells", "format": "cell-based, human", "settings": "10 μM, up to 24 hours, MDA-MB-468", "procedure": "FIG. 34A is an image of an immunoblot of MDA-MB-468 breast adenocarcinoma cells treated with 10 μM Sigma1 antagonist (IPAG) for the indicated times, up to 24 hours. Total cell lysates were resolved by SDS-PAGE and immunoblotted with a poly-ubiquitin antibody P4D1. FIG. 34B is an image of an immunoblot of HepG2 hepatocellular carcinoma cells treated for 20 hours with 10 μM of indicated Sigma1 ligands.\nFIG. 59, comprising FIGS. 59A-59B, illustrates the finding that the novel Sigma1 ligand JMS-51-58 modulated the ubiquitin proteasome system. FIG. 59A is an image of an immunoblot evaluating the levels of poly-ubiquitylated proteins of MDA-MB-468 breast adenocarcinoma treated for 16 hours with 10 μM of JMS-51-58. FIG. 59B is an image of an immunoblot evaluating the levels of poly-ubiquitylated proteins of MDA-MB-231 breast adenocarcinoma cells treated for 16 hours with 10 μM of JMS-51-58. The levels of poly-ubiquitylated proteins were evaluated by immunoblot."}}, "note": "Read-outs that look alike come from different tables or passages of the source.", "data": [{"smiles": "N=C(Nc1ccc(I)cc1)NC1C2CC3CC(C2)CC1C3", "note": "(centres unmarked) [IPAG, 1-(4-iodophenyl)-3-(2-adamantyl)guanidine]", "values": [{"measurement": "inhibition of cell proliferation", "setting": "[1]", "value": "inhibited cell proliferation with comparable potencies in all cell lines"}, {"measurement": "decrease of Akt phosphorylation at serine 473", "setting": "[2]; 10 μM, 24 hours", "value": 3, "unit": "fold"}, {"measurement": "decrease of p70S6K phosphorylation at threonine 389", "setting": "[2]; 10 μM, 24 hours", "value": 3, "unit": "fold"}, {"measurement": "p44/42 ERK1/2 phosphorylation at threonine 202 and tyrosine 204", "setting": "[2]; 24 hour treatment", "value": "abrogated"}, {"measurement": "Ki", "setting": "Sigma1", "value": "0.005 ± 0.002", "unit": "µM"}, {"measurement": "cell cycle profile", "setting": "[3]", "value": "accumulation of breast adenocarcinoma cells in G1 phase of the cell cycle"}, {"measurement": "activation of UPR markers at a dose that does not produce autophagosomes", "setting": "MDA-MB-468 cells; 1 μM, 24 hours", "value": "salient activation of at least seven markers of UPR"}, {"measurement": "EC50", "setting": "MDA-MB-468 cells; 24 hours, read-out: EC50 for phosphorylation of JNK (Thr183/Tyr185)", "value": 1.7, "unit": "µM"}, {"measurement": "EC50", "setting": "MDA-MB-468 cells; Homo sapiens, MDA-MB-468, 24 h, read-out: EC50 for induction of ATF4", "value": 0.5, "unit": "µM"}, {"measurement": "EC50", "setting": "MDA-MB-468 cells; Homo sapiens, MDA-MB-468, 24 h, read-out: EC50 for induction of IRE1α", "value": 0.9, "unit": "µM"}, {"measurement": "EC50", "setting": "MDA-MB-468 cells; Homo sapiens, MDA-MB-468, 24 h, read-out: EC50 for phosphorylation of JNK (Thr183/Tyr185)", "value": 1.6, "unit": "µM"}, {"measurement": "EC50", "setting": "MDA-MB-468 cells; Homo sapiens, MDA-MB-468, 24 h, read-out: EC50 for phosphorylation of eIF2α (Ser51)", "value": 2.3, "unit": "µM"}, {"measurement": "EC50", "setting": "MDA-MB-468 cells; Homo sapiens, MDA-MB-468, 24 h, read-out: EC50 for phosphorylation of p38MAPK (Thr180/Tyr182)", "value": 0.5, "unit": "µM"}, {"measurement": "EC50", "setting": "MDA-MB-468 cells; Homo sapiens, MDA-MB-468, 24 hours, read-out: EC50 for induction of GRP78/BiP", "value": 1.4, "unit": "µM"}, {"measurement": "conversion of LC3 to LC3II (autophagosome formation)", "setting": "[4]; 10 μM", "value": "converted LC3 to LC3II"}, {"measurement": "EC50", "setting": "[4]; Homo sapiens, MDA-MB-468, two independent determinations, read-out: mean EC50 of LC3 lipid conjugation (LC3II induction)", "value": 7, "unit": "µM"}, {"measurement": "levels of ubiquitylated proteins", "setting": "[5]", "value": "increased level of ubiquitylated proteins"}]}]}
